Experimental data: US7622106B1, “Necrosis assay” (Board of Regents, The University of Texas System, priority 2009, dated 2009)
Values belong to the compound of their own block, whether it stands above or below them.

What was measured:
T98G cells = assay: Necrosis induction in T98G cells ectopically expressing RIP3; format: cell-based, human; details: T98G cells expressing wild type RIP3, necrosis induction
From the text: Since cells resistant to TNF-α induced necrotic death are also defective in RIP3 expression, we then tested whether ectopic expression of RIP3 converts these cells to sensitive ones. When wild type RIP3 was expressed in T98G cells, we saw marked cell death in these cells upon necrosis induction compared to vector transfection controls. […] Moreover, T98G cell death resulted from RIP3 expression was blocked by the necrosis inhibitor, Necrostatin-1. Similar effects were observed when RIP3 was expressed in HeLa cells, MCF-7 cells, and H2009 cells.

[1] = molecular target: RIPK1/FADD/caspase-8 complex (Homo sapiens, UniProt Q13546); assay: Caspase-8 immunoprecipitation of RIPK1/FADD/caspase-8/RIP3 complex in HT-29 cells; format: cell-based; details: co-treatment, anti-caspase-8 immunoprecipitation
Description: Since RIPK1 forms a complex with caspase-8/FADD upon treatment with TNF-α plus Smac mimetic and the complex is stabilized with z-VAD (Petersen et al., 2007; Wang et al., 2008), we wondered whether it is the same complex that recruits RIP3. To check that directly, we immuno-precipitated caspase-8 and analyzed the composition of the immuno-complex by Western blotting. […] RIP3 continued to be recruited to the complex for up to 6 hours of treatment. Much less proteins were immuno-precipitated at 8 hours with this anti-caspase-8 antibody. This observation might reflect that a large percentage of cells were dying. […] This is consistent with the notion that Necrostatin-1 inhibits RIPK1 kinase activity, which is required for the formation of RIPK1/FADD/caspase-8 complex (Degterev et al., 2008; Wang et al., 2008).

HT-29 cells = assay: Smac mimetic plus pan-caspase inhibitor induced necrosis in HT-29 cells; format: cell-based, human; details: for cell death of HT-29 cells: Smac mimetic plus z-VAD or Q-VD-OPH co-treatment
Description: To verify that cell death seen in HT-29 cells was indeed necrosis, cells treated with either vehicle DMSO, or Smac mimetic plus z-VAD, were analyzed by electron microscopy (EM). […] No obvious apoptotic morphological changes were observed.
Since Smac mimetic induces apoptosis in certain tumor lines as a result of autocrine TNF-α (Petersen et al., 2007; Vince et al., 2007; Varfolomeev et al., 2007), we checked whether autocrine TNF-α is required for the observed necrosis in HT-29 cells. […] Moreover, exogenously added TNF-α augmented Smac mimetic plus z-VAD induced cell death and it did so in a dose dependent manner.

RIP3/RIPK1 = RIP3/RIPK1 (Homo sapiens, UniProt Q13546); assay: RIP3 up-shift and RIPK1 co-immunoprecipitation in HT-29 cells under necrosis induction; format: cell-based; details: co-treatment during necrosis induction (TNF-α, Smac mimetic, z-VAD)
Description: To test whether endogenous RIP3 indeed interacts with RIPK1 upon necrosis induction, we treated HT-29 cells with TNF-α, Smac mimetic and z-VAD, followed by immuno-precipitation using an anti-RIPK1 antibody at different time points. […] Correlating with the shift, RIP3 was found in the RIPK1 immuno-complex starting at 4 hours of necrosis induction and peaked at 8 hours. The up-shift of RIP3 and its interaction with RIPK1 only occurred under necrosis-inducing conditions. The observed up-shift of RIP3 is most likely due to phosphorylation that depends on its own kinase activity. […] Moreover, the RIP3 band can be shifted down to the original position on SDS-PAGE gel with phosphatase treatment.
To further confirm the relevance of RIP3 up-shift and its induced interaction with RIPK1 to necrosis, HT-29 cells were co-treated with Necrostatin-1 during necrosis induction.

L929 cells = assay: Necrotic cell death in L929 cells; format: cell-based, mouse
From the text: TNF-α induced necrosis has been most extensively studied in mouse fibrosarcoma L929 cells due to its unique ability to undergo necrosis in response to TNF-α, or z-VAD alone (Grooten et al., 1993; Vercammen et al., 1998; Degterev et al., 2005; Kim et al., 2007). To test whether RIP3 is required for necrosis this L929 cells, we knocked down RIP3 with three individual mouse siRNA oligoes. Cell death induced by z-VAD, or TNF-α alone or combination of the two was attenuated when RIP3 was knocked down in L929 cells. The efficacy of necrosis blockage of these oligoes correlated perfectly with the efficiency of RIP3 knockdown.

cIAP2 = molecular target: T1, cIAP2 (Homo sapiens, UniProt Q13489); assay: cIAP2 degradation upon Smac mimetic treatment in HT-29 cells; format: cell-based
T1 construct: endogenous in cells; host or cells: HT-29

certain tumor cell lines = details: cited from earlier work

RIP3/RIPK1, sequence (Q13546 whole entry): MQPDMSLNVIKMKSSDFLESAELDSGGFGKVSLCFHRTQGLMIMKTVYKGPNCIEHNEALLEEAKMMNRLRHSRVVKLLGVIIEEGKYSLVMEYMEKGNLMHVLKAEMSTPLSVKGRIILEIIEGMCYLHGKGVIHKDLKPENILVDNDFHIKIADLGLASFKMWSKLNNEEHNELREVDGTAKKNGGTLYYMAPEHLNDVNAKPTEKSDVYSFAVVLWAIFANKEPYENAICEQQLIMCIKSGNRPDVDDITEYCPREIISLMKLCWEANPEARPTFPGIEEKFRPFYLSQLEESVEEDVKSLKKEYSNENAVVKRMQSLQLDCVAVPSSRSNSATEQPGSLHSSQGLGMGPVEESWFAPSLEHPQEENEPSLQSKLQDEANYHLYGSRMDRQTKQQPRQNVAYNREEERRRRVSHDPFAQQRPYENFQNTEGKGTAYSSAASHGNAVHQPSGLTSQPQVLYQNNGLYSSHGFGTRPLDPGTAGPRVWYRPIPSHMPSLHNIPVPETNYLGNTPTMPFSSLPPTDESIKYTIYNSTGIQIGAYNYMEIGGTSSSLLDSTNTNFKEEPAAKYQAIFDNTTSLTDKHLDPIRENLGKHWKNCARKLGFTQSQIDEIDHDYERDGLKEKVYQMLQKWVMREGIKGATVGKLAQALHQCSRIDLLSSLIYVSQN
T1 sequence (Q13489 whole entry): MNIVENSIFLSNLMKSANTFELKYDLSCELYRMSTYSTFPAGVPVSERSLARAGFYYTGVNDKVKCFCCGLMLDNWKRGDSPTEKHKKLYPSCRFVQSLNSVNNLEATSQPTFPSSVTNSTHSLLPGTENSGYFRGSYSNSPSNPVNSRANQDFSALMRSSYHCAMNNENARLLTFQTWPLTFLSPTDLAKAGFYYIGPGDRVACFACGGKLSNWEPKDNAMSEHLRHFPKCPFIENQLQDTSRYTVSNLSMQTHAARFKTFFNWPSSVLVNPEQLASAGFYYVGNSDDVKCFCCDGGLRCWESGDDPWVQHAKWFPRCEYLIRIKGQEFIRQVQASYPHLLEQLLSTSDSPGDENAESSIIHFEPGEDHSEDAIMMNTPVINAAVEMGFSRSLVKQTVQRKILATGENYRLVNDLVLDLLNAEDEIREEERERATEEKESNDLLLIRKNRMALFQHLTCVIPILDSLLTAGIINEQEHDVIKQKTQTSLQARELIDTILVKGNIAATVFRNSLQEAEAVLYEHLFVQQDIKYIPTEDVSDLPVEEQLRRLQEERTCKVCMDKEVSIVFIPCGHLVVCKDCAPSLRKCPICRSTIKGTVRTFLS
RIPK1/FADD/caspase-8 complex, sequence (Q13546 whole entry, one chain of several): as the sequence (Q13546 whole entry) above

Compound: CN1C(=O)C(Cc2c[nH]c3ccccc23)NC1=S (stereo not drawn) [Necrostatin-1]
effect on T98G cell death resulting from RIP3 expression (T98G cells): blocked
formation of RIPK1/FADD/caspase-8 (RIP3) complexes [1]: none of these complexes were able to form efficiently
effect on Smac mimetic plus z-VAD induced cell death (HT-29 cells; HT-29 cells, agent added to culture): cell death was prevented
RIP3 interaction with RIPK1 (RIP3/RIPK1): completely prevented
RIP3 up-shift (RIP3/RIPK1): completely prevented

cIAP2 degradation (cIAP2): accelerated degradation
Compound: CN[C@@H](C)C(=O)N[C@H](C(=O)N1CCC[C@H]1Cn1nnnc1Sc1ccccc1)C(C)OCC#CC#CCO[C@H](C)[C@H](NC(=O)[C@H](C)NC)C(=O)N1CCCC1Cn1nnnc1Sc1ccccc1 (stereo partly drawn) [Smac mimetic]
cell death in L929 cells (L929 cells): accelerated cell death
cell death of HT-29 cells (HT-29 cells): exacerbated cell death

Compound: Q-VD-OPH
cell death of HT-29 cells (HT-29 cells): exacerbated cell death

Compound: TNF-α
effect of exogenously added TNF-α on Smac mimetic plus z-VAD induced cell death (HT-29 cells; HT-29 cells): augmented

Compound: z-VAD
cell death of HT-29 cells (HT-29 cells): exacerbated cell death
effect on Smac mimetic induced apoptotic death (certain tumor cell lines): completely blocked
